Reference: publication PMC5155016 (Nature chemical biology, 2015)
Where a chain is given by its changes, count along the chain named. In names and notes the source's numbering stands.

Experiments:
[1] = target: homodimeric R132H IDH1 (Homo sapiens, UniProt O75874, R132H); assay: Biochemical mechanism of inhibition analysis; conditions: by analogy with close analog
[2] = system: R132G IDH1 AML cells; assay: Cell cycle analysis; type: cell-based, human; conditions: 3 μM, 7 days
[3] = system: R132G IDH1 mutant AML cells; assay: DNA methylation profiling by ERRBS; type: cell-based, human; conditions: q-value < 0.001, methylation difference ≥ 25%
[4] = system: primary IDH1-mutant human AML cells in NSG mice; assay: Xenotransplantation of primary IDH1 mutant AML cells in NSG mice; type: in vivo
[5] = system: R132G IDH1 AML cells; assay: Intracellular 2-HG in primary R132G IDH1 AML cells ex vivo; type: cell-based, human; conditions: 1.7 μM
[6] = target: T1, IDH2 SW1353 cell 2-HG (Homo sapiens, UniProt P48735, R172S); assay: IDH2 cellular 2-HG assay in SW1353 cells; type: cell-based; conditions: read-out: IDH2 IC50 SW1353 cell 2-HG
T1 sequence (P48735 40-452 R172S): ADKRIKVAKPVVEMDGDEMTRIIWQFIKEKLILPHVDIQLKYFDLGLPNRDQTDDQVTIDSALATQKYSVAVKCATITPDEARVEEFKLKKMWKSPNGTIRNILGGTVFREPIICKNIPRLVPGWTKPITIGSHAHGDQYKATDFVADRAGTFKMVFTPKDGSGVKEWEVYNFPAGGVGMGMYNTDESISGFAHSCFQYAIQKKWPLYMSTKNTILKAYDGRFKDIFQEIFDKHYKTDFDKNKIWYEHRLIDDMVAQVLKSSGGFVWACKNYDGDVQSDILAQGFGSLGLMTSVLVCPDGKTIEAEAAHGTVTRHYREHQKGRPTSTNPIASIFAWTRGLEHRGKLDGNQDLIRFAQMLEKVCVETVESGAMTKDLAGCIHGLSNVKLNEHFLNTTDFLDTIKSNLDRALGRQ

[7] = system: R132G IDH1 AML cells; assay: Blast and G/M cell fractions by CD45/SSC flow cytometry; type: cell-based, human; conditions: 3 μM, 7 days
[8] = system: R132C IDH1 AML cells; assay: Cell cycle analysis; type: cell-based, human; conditions: 3 μM, 7 days
[9] = system: H3K9me2 in R132C IDH1 expressing HT-1080 cells; assay: Western blot of histone H3K9me2 in HT-1080 cells; type: cell-based, human; conditions: 48 hours of treatment
[10] = PAMPA, pH 7.4
[11] = Stability of compounds in media; type: physicochemical
[12] = system: IDH2 R172 U87MG; assay: IDH2 cellular 2-HG assay in R172 U87MG cells; type: cell-based; conditions: read-out: IDH2 IC50 R172 U87MG
[13] = system: leukemic blasts; assay: Leukemic blast analysis including HLA-DR and c-Kit markers; type: cell-based, human
[14] = Pharmacokinetic analysis in mouse; type: in vivo; conditions: CD-1 mice, IP, 213 mg/kg, up to 24 hours
[15] = target: R132C IDH1 mutant HT-1080 cells (Homo sapiens, UniProt O75874, R132C); assay: Quantification of intracellular 2-HG in HT-1080 cells; type: cell-based
Chain of R132C IDH1 mutant HT-1080 cells (O75874 whole entry R132C): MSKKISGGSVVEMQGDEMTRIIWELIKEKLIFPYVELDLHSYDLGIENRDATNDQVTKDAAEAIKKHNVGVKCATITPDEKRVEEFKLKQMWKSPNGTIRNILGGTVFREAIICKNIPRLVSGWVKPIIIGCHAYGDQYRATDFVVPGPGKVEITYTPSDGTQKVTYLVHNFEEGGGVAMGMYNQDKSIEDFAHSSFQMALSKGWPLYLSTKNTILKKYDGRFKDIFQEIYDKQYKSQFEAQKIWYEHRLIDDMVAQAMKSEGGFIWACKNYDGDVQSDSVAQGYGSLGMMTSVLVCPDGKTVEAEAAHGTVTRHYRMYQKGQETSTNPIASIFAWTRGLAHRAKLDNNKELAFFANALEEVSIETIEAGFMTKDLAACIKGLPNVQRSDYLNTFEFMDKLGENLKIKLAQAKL
Chain of R132C IDH1 mutant HT-1080 cells (O75874 whole entry partner): as the sequence (O75874 whole entry R132C) above, with C132R counted along it

[16] = target: the molecule itself; assay: SEC

Chain of homodimeric R132H IDH1 (O75874 whole entry R132H): as the sequence (O75874 whole entry R132C) above, with C132H counted along it

In the case of `C[C@H](O)c1cccc(NC(=O)c2nn(Cc3ccc(F)cc3)c3c2CN(C(=O)c2ccc[nH]2)C[C@H]3C)c1` [GSK321, (7R)-1-[(4-fluorophenyl)methyl]-N-{3-[(1S)-1-hydroxyethyl]phenyl}-7-methyl-5-(1H-pyrrol-2-ylcarbonyl)-4,5,6,7-tetrahydro-1H-pyrazolo[4,3c]pyridine-3-carboxamide], the “Mechanism of action versus NADPH” value [1] is reported as “mixed vs NADPH”, the “Mechanism of action versus αKG” value [1] is reported as “competitive vs αKG” and the “Cells in G1-phase, R132G IDH1” value [2] is reported as 57.9 ± 6.9%. The “Quiescent (G0)-phase cells, R132G IDH1” value [2] was 36.7 ± 4.4%, the “Hypermethylated CpG loci” value ([3]; 3 μM, 6 days, vs controls) was 10153 and the “Hypomethylated CpG loci” value ([3]; 3 μM, 6 days, vs controls) was 18668. For the same molecule, the “Hypermethylated regions (DMRs)” value ([3]; 1kb tiles) was 1157, the “Hypomethylated regions (DMRs)” value ([3]; 1kb tiles) was 2075 and the “2HG in IDH1-mutant AML cells of treated mice” value ([4]; NSG mice) was “decrease in 2HG”. For the same molecule, the “Inhibition of intracellular 2-HG” value [5] was 78%, the IC50 [6] was 4.69 µM and the “Fraction of leukemic blast cells (CD45low/+ SSClow) in comparison to DMSO” value [7] was 0.7 ± 0.1 fold. For the same molecule, the “Cells in G1-phase, R132C IDH1” value [8] was 66.8 ± 12.0%, the “Quiescent (G0)-phase cells, R132C IDH1” value [8] was 24.0 ± 11.8% and the “Effect on histone H3K9me2 levels” value [9] was “markedly decreased H3K9me2 levels”. For the same molecule, the “AMP (artificial membrane permeability)” value [10] was 324 nm/s, the AMP permeability class [10] was “high” and the Stability in media [11] was “at least 14 days”. For the same molecule, the IC50 [12] was 7.94 µM and the “Leukemic blasts, analysis including HLA-DR and c-Kit markers” value [13] was 0.4 ± 0.2 fold.

In the case of `COc1c(C)cc(NC(=O)c2nn(Cc3ccc(F)cc3)c3c2CN(C(=O)c2ccc[nH]2)C[C@]3(C)C(N)=O)cc1C` [GSK864], the “Percentage of blast cells (SSClow CD45low/+) in bone marrow” value ([4]; NSG mice, 150 mg/kg) is reported as “significant decrease in the percentage of blast cells”, the “huCD45+ CD38+ cells in bone marrow” value ([4]; R132C or R132H IDH1 mutant engrafted NSG mice, 150 mg/kg) is reported as “slightly increased numbers of huCD45^+ CD38^+ cells” and the “Blood concentrations after intraperitoneal administration” value [14] is reported as “significant concentrations of GSK864 were maintained”. It also gave an EC50 [15] of 0.32 µM.

B1: IDH2(40-452)Flag wild type (enzyme, human, UniProt P48735 40-452, looked up)
chain: T1 sequence (P48735 40-452 R172S) with S133R
B1: binds [16].

B2: IDH2(40-452)Flag R172S (enzyme, human, UniProt P48735 40-452, looked up)
chain: T1 sequence (P48735 40-452 R172S)
B2: binds [16].

B3: IDH2(40-452)Flag R140Q (enzyme, human, UniProt P48735 40-452, looked up)
chain: T1 sequence (P48735 40-452 R172S) with R101Q, S133R
B3: binds [16].
